Laboratory results: publication PMC5218480 (PLoS ONE, 2017)

Test system: MV-4-11 cells
Assay: Gene expression microarray analysis (Affymetrix PrimeView) and GSEA
Format: cell-based, human
Parameters: RFU PODN (11730768_x_at) / Fold change /veh PODN (11730768_x_at) / RFU LINC00158 (11744669_a_at) / Fold change /veh LINC00158 (11744669_a_at) / RFU DUSP10 (11751237_a_at) / Fold change /veh DUSP10 (11751237_a_at) / RFU ID3 (11757404_x_at) / Fold change /veh ID3 (11757404_x_at) / RFU PLEKHG5 (11737974_s_at) / Fold change /veh PLEKHG5 (11737974_s_at) / RFU LRRC4B (11730491_at) / Fold change /veh LRRC4B (11730491_at) / RFU GIMAP4 (11747438_a_at) / Fold change /veh GIMAP4 (11747438_a_at) / RFU KRT8 (11758183_x_at) / Fold change /veh KRT8 (11758183_x_at) / RFU CNN1 (11734310_a_at) / Fold change /veh CNN1 (11734310_a_at) / RFU VPS37D (11726825_at) / Fold change /veh VPS37D (11726825_at) / RFU C10orf10 (11716522_x_at) / Fold change /veh C10orf10 (11716522_x_at) / RFU KIR2DL2 /// KIR2DL4 /// KIR2DL5A /// KIR2DL5B /// KIR2DS1 /// KIR2DS2 /// KIR2DS3 /// KIR2DS4 /// KIR3DL3 /// KIR3DL3 /// KIR3DS1 (11738374_at) / Fold change /veh KIR2DL2 /// KIR2DL4 /// KIR2DL5A /// KIR2DL5B /// KIR2DS1 /// KIR2DS2 /// KIR2DS3 /// KIR2DS4 /// KIR3DL3 /// KIR3DL3 /// KIR3DS1 (11738374_at) / RFU C1QL1 (11718748_at) / Fold change /veh C1QL1 (11718748_at) / RFU TMPRSS4 (11747572_a_at) / Fold change /veh TMPRSS4 (11747572_a_at) / RFU HAMP (11756126_x_at) / Fold change /veh HAMP (11756126_x_at) / RFU RNFT2 (11725882_a_at) / Fold change /veh RNFT2 (11725882_a_at) / RFU NR4A2 (11747474_a_at) / Fold change /veh NR4A2 (11747474_a_at) / RFU ABCC12 (11746883_a_at) / Fold change /veh ABCC12 (11746883_a_at) / RFU TMEM136 (11760407_x_at) / Fold change /veh TMEM136 (11760407_x_at) / RFU CLDN22 /// WWC2 (11732394_at) / Fold change /veh CLDN22 /// WWC2 (11732394_at) / RFU HLA-DPB1 (11760878_x_at) / Fold change /veh HLA-DPB1 (11760878_x_at) / RFU SPINT1 (11716480_a_at) / Fold change /veh SPINT1 (11716480_a_at) / RFU GAP43 (11754022_s_at) / Fold change /veh GAP43 (11754022_s_at) / RFU A4GNT (11735810_at) / Fold change /veh A4GNT (11735810_at) / RFU PRB3 (11715151_x_at) / Fold change /veh PRB3 (11715151_x_at) / RFU TUBB4B (11761932_at) / Fold change /veh TUBB4B (11761932_at) / RFU CAPN14 (11732068_a_at) / Fold change /veh CAPN14 (11732068_a_at) / RFU TMCC2 (11721928_a_at) / Fold change /veh TMCC2 (11721928_a_at) / RFU IRGQ (11745062_a_at) / Fold change /veh IRGQ (11745062_a_at) / RFU FAM174B (11720279_a_at) / Fold change /veh FAM174B (11720279_a_at) / RFU TMPRSS4 (11748680_a_at) / Fold change /veh TMPRSS4 (11748680_a_at) / RFU FAM212B (11763350_a_at) / Fold change /veh FAM212B (11763350_a_at) / RFU PLEKHG5 (11743358_a_at) / Fold change /veh PLEKHG5 (11743358_a_at) / RFU ZSCAN30 (11745921_a_at) / Fold change /veh ZSCAN30 (11745921_a_at) / RFU CMKLR1 (11741424_a_at) / Fold change /veh CMKLR1 (11741424_a_at) / RFU LOC101060620 /// MAPK8IP1 (11723275_at) / Fold change /veh LOC101060620 /// MAPK8IP1 (11723275_at) / RFU SPTSSB (11747773_x_at) / Fold change /veh SPTSSB (11747773_x_at) / RFU PRSS12 (11739890_at) / Fold change /veh PRSS12 (11739890_at) / RFU BIN1 (11741810_x_at) / Fold change /veh BIN1 (11741810_x_at) / RFU WNT11 (11732464_a_at) / Fold change /veh WNT11 (11732464_a_at) / RFU C10orf10 (11716521_a_at) / Fold change /veh C10orf10 (11716521_a_at) / RFU C5orf56 (11738089_at) / Fold change /veh C5orf56 (11738089_at) / RFU CYB561 (11721691_x_at) / Fold change /veh CYB561 (11721691_x_at) / RFU ANKRD19P (11752326_a_at) / Fold change /veh ANKRD19P (11752326_a_at) / RFU OR2T12 /// OR2T33 /// OR2T8 (11738714_s_at) / Fold change /veh OR2T12 /// OR2T33 /// OR2T8 (11738714_s_at) / RFU VCAN (11748164_a_at) / Fold change /veh VCAN (11748164_a_at) / RFU JSRP1 (11732532_at) / Fold change /veh JSRP1 (11732532_at) / RFU KRTAP10-11 (11738290_x_at) / Fold change /veh KRTAP10-11 (11738290_x_at) / RFU MYO3A (11730013_a_at) / Fold change /veh MYO3A (11730013_a_at) / RFU EBF3 (11725865_a_at) / Fold change /veh EBF3 (11725865_a_at) / RFU CAMK2N1 (11719241_x_at) / Fold change /veh CAMK2N1 (11719241_x_at) / RFU C5orf56 (11738088_a_at) / Fold change /veh C5orf56 (11738088_a_at) / RFU OLFML3 (11715873_a_at) / Fold change /veh OLFML3 (11715873_a_at) / RFU LOC100653217 /// NTM (11731650_a_at) / Fold change /veh LOC100653217 /// NTM (11731650_a_at) / RFU MAPK11 (11762145_a_at) / Fold change /veh MAPK11 (11762145_a_at) / RFU FIZ1 (11724087_x_at) / Fold change /veh FIZ1 (11724087_x_at) / RFU OASL (11726364_x_at) / Fold change /veh OASL (11726364_x_at) / RFU SOX15 (11748057_x_at) / Fold change /veh SOX15 (11748057_x_at) / RFU CD79A (11719716_a_at) / Fold change /veh CD79A (11719716_a_at) / RFU HIST1H1D (11736915_at) / Fold change /veh HIST1H1D (11736915_at) / RFU CASKIN2 (11723855_a_at) / Fold change /veh CASKIN2 (11723855_a_at) / RFU LOC730098 (11760151_x_at) / Fold change /veh LOC730098 (11760151_x_at) / RFU OR4N2 (11742367_at) / Fold change /veh OR4N2 (11742367_at) / RFU PRRT2 (11749266_a_at) / Fold change /veh PRRT2 (11749266_a_at) / RFU SNX32 (11753110_a_at) / Fold change /veh SNX32 (11753110_a_at) / RFU CDHR5 (11726645_a_at) / Fold change /veh CDHR5 (11726645_a_at) / RFU RCAN1 (11760418_a_at) / Fold change /veh RCAN1 (11760418_a_at) / RFU FAM167A (11723789_a_at) / Fold change /veh FAM167A (11723789_a_at) / RFU FAM26E (11764081_at) / Fold change /veh FAM26E (11764081_at) / RFU ISYNA1 (11749810_s_at) / Fold change /veh ISYNA1 (11749810_s_at) / RFU ACY1 (11761880_at) / Fold change /veh ACY1 (11761880_at) / RFU 11764098_at / Fold change /veh 11764098_at / RFU SAMD14 (11745864_x_at) / Fold change /veh SAMD14 (11745864_x_at) / RFU NPB (11741838_a_at) / Fold change /veh NPB (11741838_a_at) / RFU TMPRSS6 (11731388_a_at) / Fold change /veh TMPRSS6 (11731388_a_at) / RFU KRTAP10-2 (11738614_at) / Fold change /veh KRTAP10-2 (11738614_at) / RFU ARHGAP8 /// PRR5-ARHGAP8 (11727945_x_at) / Fold change /veh ARHGAP8 /// PRR5-ARHGAP8 (11727945_x_at) / RFU KRTAP5-7 /// NADSYN1 (11734609_at) / Fold change /veh KRTAP5-7 /// NADSYN1 (11734609_at) / RFU RASL12 (11751679_a_at) / Fold change /veh RASL12 (11751679_a_at) / RFU CDKN2B (11736163_a_at) / Fold change /veh CDKN2B (11736163_a_at) / RFU PRF1 (11729649_at) / Fold change /veh PRF1 (11729649_at) / RFU, ZNF638 /// ZNF638-IT1 / Fold change vs veh, ZNF638 /// ZNF638-IT1 / RFU, PANK3 / Fold change vs veh, PANK3 / RFU, SH3YL1 / Fold change vs veh, SH3YL1 / RFU, ZEB2 / Fold change vs veh, ZEB2 / RFU, NRIP1 / Fold change vs veh, NRIP1 / RFU, PTTG1IP / Fold change vs veh, PTTG1IP / RFU, CAPN2 / Fold change vs veh, CAPN2 / RFU, MED14 / Fold change vs veh, MED14 / RFU, SNORA58 / Fold change vs veh, SNORA58 / RFU, C1orf63 / Fold change vs veh, C1orf63 / RFU, LRRFIP1 / Fold change vs veh, LRRFIP1 / RFU, NDUFAF7 / Fold change vs veh, NDUFAF7 / RFU, SLC12A2 / Fold change vs veh, SLC12A2 / RFU, IBTK / Fold change vs veh, IBTK / RFU, ESF1 / Fold change vs veh, ESF1 / Fold change vs veh, TMEM50B / RFU, TAOK1 / Fold change vs veh, TAOK1 / RFU, ACBD3 / Fold change vs veh, ACBD3 / RFU, TMA16 / Fold change vs veh, TMA16 / RFU, RWDD3 / Fold change vs veh, RWDD3 / RFU, BCAT1 / Fold change vs veh, BCAT1 / RFU, EDEM3 / Fold change vs veh, EDEM3 / RFU, TMEM33 / Fold change vs veh, TMEM33 / RFU, WDR75 / Fold change vs veh, WDR75 / RFU, AHCTF1 / Fold change vs veh, AHCTF1 / RFU, TFRC / Fold change vs veh, TFRC / RFU, ZDHHC17 / Fold change vs veh, ZDHHC17 / RFU, NOM1 / Fold change vs veh, NOM1 / RFU, ARL8B / Fold change vs veh, ARL8B / RFU, ZBTB11 / Fold change vs veh, ZBTB11 / RFU, TAMM41 / Fold change vs veh, TAMM41 / RFU, KIAA1704 /// LOC100996395 / Fold change vs veh, KIAA1704 /// LOC100996395 / RFU, ING1 / Fold change vs veh, ING1 / RFU, TRMT61B / Fold change vs veh, TRMT61B / RFU, FUBP3 / Fold change vs veh, FUBP3 / RFU, TP53 / Fold change vs veh, TP53 / RFU, TNKS2 / Fold change vs veh, TNKS2 / RFU, ZFP14 / Fold change vs veh, ZFP14 / RFU, ACTR2 / Fold change vs veh, ACTR2 / RFU, PPP3R1 / Fold change vs veh, PPP3R1 / RFU, PIK3R1 / Fold change vs veh, PIK3R1 / RFU, HNRNPA1 / Fold change vs veh, HNRNPA1 / RFU, RNF170 / Fold change vs veh, RNF170 / RFU, ZNF28 / Fold change vs veh, ZNF28 / RFU, RNGTT / Fold change vs veh, RNGTT / RFU, OGT / Fold change vs veh, OGT / RFU, BRD1 / Fold change vs veh, BRD1 / RFU, MARS / Fold change vs veh, MARS / RFU, ZNF655 / Fold change vs veh, ZNF655 / RFU, FAHD1 / Fold change vs veh, FAHD1 / RFU, BDP1 / Fold change vs veh, BDP1 / RFU, LRRCC1 / Fold change vs veh, LRRCC1 / RFU, ARID1A / Fold change vs veh, ARID1A / RFU, ZNF146 / Fold change vs veh, ZNF146 / RFU, ZNF330 / Fold change vs veh, ZNF330 / RFU, GPN3 / Fold change vs veh, GPN3 / RFU, C9orf123 / Fold change vs veh, C9orf123 / RFU, N4BP2L2 / Fold change vs veh, N4BP2L2 / RFU, ARFIP1 / Fold change vs veh, ARFIP1 / RFU, FAM179B / Fold change vs veh, FAM179B / RFU, BCL10 / Fold change vs veh, BCL10 / RFU, UHRF1BP1L / Fold change vs veh, UHRF1BP1L / RFU, BET1 / Fold change vs veh, BET1 / RFU, CNOT2 / Fold change vs veh, CNOT2 / RFU, ZNF268 / Fold change vs veh, ZNF268 / Fold change vs veh, ZNF507 / RFU, DGCR2 / Fold change vs veh, DGCR2 / RFU, WDSUB1 / Fold change vs veh, WDSUB1 / Fold change vs veh, HSP90B1 /// MIR3652 / RFU, ADSS / Fold change vs veh, ADSS / RFU, GK / Fold change vs veh, GK / RFU, ZNF148 / Fold change vs veh, ZNF148 / RFU, TAF9 / Fold change vs veh, TAF9 / RFU, SLC1A5 / Fold change vs veh, SLC1A5 / RFU, SLMO2 / Fold change vs veh, SLMO2 / RFU, ABCC4 / Fold change vs veh, ABCC4 / RFU, LOC101060439 /// RAP1B / Fold change vs veh, LOC101060439 /// RAP1B / RFU, RFX7 / Fold change vs veh, RFX7 / RFU, GTPBP10 / Fold change vs veh, GTPBP10 / RFU, CNEP1R1 / Fold change vs veh, CNEP1R1 / RFU, BIVM-ERCC5 /// ERCC5 / Fold change vs veh, BIVM-ERCC5 /// ERCC5 / RFU, ILF3 / Fold change vs veh, ILF3 / RFU 11762660_at / Fold change /veh 11762660_at / RFU VCAN (11757783_s_at) / Fold change /veh VCAN (11757783_s_at) / RFU DDX43 (11728927_at) / Fold change /veh DDX43 (11728927_at) / RFU KRT8 (11758188_x_at) / Fold change /veh KRT8 (11758188_x_at) / RFU NKD1 (11759106_at) / Fold change /veh NKD1 (11759106_at) / RFU SRD5A1 (11742802_a_at) / Fold change /veh SRD5A1 (11742802_a_at) / RFU TPSAB1 /// TPSB2 (11721975_s_at) / Fold change /veh TPSAB1 /// TPSB2 (11721975_s_at) / RFU GSTM3 (11746129_a_at) / Fold change /veh GSTM3 (11746129_a_at) / RFU IL23R (11737362_x_at) / Fold change /veh IL23R (11737362_x_at) / RFU TMEM51 (11727254_a_at) / Fold change /veh TMEM51 (11727254_a_at) / RFU PIWIL2 (11732686_x_at) / Fold change /veh PIWIL2 (11732686_x_at) / RFU ORM1 (11744905_x_at) / Fold change /veh ORM1 (11744905_x_at) / RFU CCDC152 (11743942_at) / Fold change /veh CCDC152 (11743942_at) / RFU ECM1 (11717891_a_at) / Fold change /veh ECM1 (11717891_a_at) / RFU IL23R (11748794_a_at) / Fold change /veh IL23R (11748794_a_at) / RFU TNFAIP8L3 (11732012_x_at) / Fold change /veh TNFAIP8L3 (11732012_x_at) / RFU MBOAT4 (11741988_at) / Fold change /veh MBOAT4 (11741988_at) / RFU 11764193_at / Fold change /veh 11764193_at / RFU TMEM53 (11763286_at) / Fold change /veh TMEM53 (11763286_at) / RFU MAGEB2 (11727129_at) / Fold change /veh MAGEB2 (11727129_at) / RFU TMEM200A (11744735_a_at) / Fold change /veh TMEM200A (11744735_a_at) / RFU CCDC152 (11751479_a_at) / Fold change /veh CCDC152 (11751479_a_at) / RFU FAM211A (11726209_a_at) / Fold change /veh FAM211A (11726209_a_at) / RFU RGS16 (11746705_a_at) / Fold change /veh RGS16 (11746705_a_at) / RFU VCAN (11755009_s_at) / Fold change /veh VCAN (11755009_s_at) / RFU RHOB (11743442_s_at) / Fold change /veh RHOB (11743442_s_at) / RFU RGS16 (11720943_a_at) / Fold change /veh RGS16 (11720943_a_at) / RFU RGS16 (11720944_at) / Fold change /veh RGS16 (11720944_at) / RFU, VPS4B / Fold change vs veh, VPS4B / RFU, CREB1 / Fold change vs veh, CREB1 / RFU, DNAJC13 / Fold change vs veh, DNAJC13 / RFU, GNAQ / Fold change vs veh, GNAQ / RFU, CDK5R1 / Fold change vs veh, CDK5R1 / RFU, ZRANB3 / Fold change vs veh, ZRANB3 / RFU, CUL4A / Fold change vs veh, CUL4A / RFU, CCNY / Fold change vs veh, CCNY / RFU, UFL1 / Fold change vs veh, UFL1 / RFU, COG3 / Fold change vs veh, COG3 / RFU, DIAPH2 / Fold change vs veh, DIAPH2 / RFU, SKA2 / Fold change vs veh, SKA2 / RFU, AFF3 / Fold change vs veh, AFF3 / RFU, LMF1 / Fold change vs veh, LMF1 / RFU, IPO11 / Fold change vs veh, IPO11 / RFU, DFFB / Fold change vs veh, DFFB / RFU, FOXP1 / Fold change vs veh, FOXP1 / RFU, CARD8 / Fold change vs veh, CARD8 / RFU, STRN3 / Fold change vs veh, STRN3 / RFU, ADK / Fold change vs veh, ADK / RFU, RASSF2 / Fold change vs veh, RASSF2 / RFU, WIPF1 / Fold change vs veh, WIPF1 / RFU, LARP1B / Fold change vs veh, LARP1B / RFU, RASA1 / Fold change vs veh, RASA1 / RFU, RB1 / Fold change vs veh, RB1 / RFU, PPFIA1 / Fold change vs veh, PPFIA1 / RFU, MAT2A / Fold change vs veh, MAT2A / RFU, CCT5 / Fold change vs veh, CCT5 / RFU, WDR92 / Fold change vs veh, WDR92 / RFU, CUX1 / Fold change vs veh, CUX1 / RFU, TTC7A / Fold change vs veh, TTC7A / RFU, TMEM135 / Fold change vs veh, TMEM135 / RFU, DEPTOR / Fold change vs veh, DEPTOR / RFU, CPM / Fold change vs veh, CPM / RFU, DNAJB6 / Fold change vs veh, DNAJB6 / RFU, CACNA2D3 / Fold change vs veh, CACNA2D3 / RFU, DTX4 / Fold change vs veh, DTX4 / RFU, TFCP2 / Fold change vs veh, TFCP2 / RFU, GMCL1 /// GMCL1P1 / Fold change vs veh, GMCL1 /// GMCL1P1 / RFU, AEBP2 / Fold change vs veh, AEBP2 / RFU, SNHG1 /// SNORD22 /// SNORD25 /// SNORD26 /// SNORD27 /// SNORD28 /// SNORD29 /// SNORD31 / Fold change vs veh, SNHG1 /// SNORD22 /// SNORD25 /// SNORD26 /// SNORD27 /// SNORD28 /// SNORD29 /// SNORD31 / Fold change (Aza/veh), C12orf56 (ProbeSet 11735607_a_at) / Fold change (ACY-1035/veh), C12orf56 (ProbeSet 11735607_a_at) / Fold change (Aza/veh), FGFR1OP (ProbeSet 11751329_s_at) / Fold change (ACY-1035/veh), FGFR1OP (ProbeSet 11751329_s_at) / Fold change (Aza/veh), VPS36 (ProbeSet 11739960_a_at) / Fold change (ACY-1035/veh), VPS36 (ProbeSet 11739960_a_at) / RFU SYPL1 (11715823_x_at) / Fold change /veh SYPL1 (11715823_x_at) / RFU IGFBP7 (11715501_s_at) / Fold change /veh IGFBP7 (11715501_s_at) / RFU REEP3 (11722064_at) / Fold change /veh REEP3 (11722064_at) / RFU IGLL1 (11728026_x_at) / Fold change /veh IGLL1 (11728026_x_at): dose or concentration left out as unconfirmed
Details: ProbeSet 11723944_a_at; LIST B

With Nc1ccc(-c2cccs2)cc1NC(=O)c1ccc2c(c1)cc(C1CC1)n2CCN1CCOCC1 [ACY-1035] the “RFU, PTTG1IP” value was 718.82 RFU.
